Test results as given in publication PMC10777851, “SMT-738: a novel small-molecule inhibitor of bacterial lipoprotein transport targeting Enterobacteriaceae” (Antimicrobial Agents and Chemotherapy, 2023).
pIC50: −log10 of the molar value. Values after ≈ are worked out from the molar mass of the structure shown.

Tests used:
Edwardsiella tarda = experiment: MIC, panel of 100 bacterial species; type: cell-based
Description: (§1) MIC tests were performed by broth microdilution in-line with CLSI susceptibility testing standards ([20], [21]) either in-house or at IHMA (Europe and USA) or JMI Laboratories using cation-adjusted Mueller Hinton Broth.

Morganella morganii = experiment: MIC, panel of 100 bacterial species; type: cell-based
Description: as §1

Proteus sp. = experiment: MIC, panel of 100 bacterial species; type: cell-based
Description: as §1

HEK293 = experiment: Cytotoxicity (CellTiter-Glo), HEK293; type: cell-based; conditions: HEK293, 24 h
Description: HepG2 (ATCC, HB-8065) and HEK293 (ATCC, CRL-1573) were sourced from ATCC. For the cytotoxicity assay, cells were seeded onto 96-well plates, which were then incubated for 24 h in a 5% CO2 incubator at 37°C. On the day of the assay, 10-point, twofold serial dilutions of test compound were prepared in assay media (MEM + 10% FBS) in separate 96-well plates. Assay plates were removed from the incubator, and the media from all of the wells were removed, taking care not to disturb the cell layer. Compound-containing assay media or control media were added to the relevant wells. Assay plates were returned to the 5% CO2 incubator at 37°C for 24 h. CellTiter-Glo reagent (Promega, G7570) was used to determine the viability of the cells.

[1] = tested on: Renal proximal tubule epithelial cells; experiment: Nephrotoxicity assay (cell health markers); type: cell-based; conditions: top concentration of 500 µM (= 196.85 µg/mL)
Description: The standard nephrotoxicity assay was performed by Cyprotex, UK. Renal proximal tubule epithelial cells were exposed to a range of concentrations of compound, loaded with relevant dye/antibody for each cell health marker and scanned using a fluorescent cellular imager (ArrayScan, Thermo Scientific Cellomics). Cell health parameters that were analyzed: cell count, nuclear size, DNA structure, mitochondrial mass, mitochondrial membrane potential, phospholipidosis, glutathione content, and cellular ATP.

E. coli UTI89 = experiment: Murine UTI infection model; type: in vivo, female C3H/HeN mice; conditions: urine and kidney, 20 mg/kg QD or BID, 60-min IV infusion over 3 days, readout 96 h; below the limit of detection
Description: Female JVC (jugular venous catheter)-cannulated C3H/HeN mice were placed on drinking water which was supplemented with 5% glucose solution prior to infection. Mice were infected transurethrally with E. coli UTI89 following published methods. SMT-738 was intravenously infused over 60 min once (QD) or twice (BID, 4 h after the end of first infusion) per day for 3 days starting 24 h post-inoculation. The mice from pre-treatment group were euthanized (with an overdose of pentobarbitone) at 24 h, the remaining mice were euthanized at 96 h post-infection. The kidney, bladder, and urine were collected and quantitatively cultured by plating serial dilutions on appropriate media; CFU were counted after overnight incubation at 37°C. A Kruskal-Wallis statistical test was performed.

K. pneumoniae NCTC 13438 = experiment: Time-kill experiment, K. pneumoniae; type: cell-based, Klebsiella pneumoniae; conditions: 2× and 4× the MIC
Description: An overnight culture of the test strain was diluted to a viable cell density of ~10^6 CFU/mL and dispensed into 96-well plates containing dilutions of SMT-738 to yield the specified multiple of the MIC. Plates were sealed with a breathable seal and incubated under shaking conditions in a humid incubator at 37°C. At specific timepoints (t = 0, 1, 2, 4, 6, 8, and 24 h), samples were taken and plated onto MH agar plates, and colonies enumerated after overnight growth at 37°C. Viable cell numbers as log10 (CFU/mL) were then plotted against time. Where no colonies were detected, the limit of detection was 100 CFU/mL. Compound activity was scored as bactericidal if the viable cell count decreased by at least 3 log10 from the initial count.

[2] = Pharmacokinetics after IV bolus in mice; type: in vivo, male CD-1 mice; conditions: 20-mg/kg bolus IV
Description: Male CD-1 mice (from Charles River, Margate UK) were administered 20 mg/kg of SMT-738 via IV bolus route. At selected timepoints, blood, kidney tissue, lung tissue, and urine were collected and progressed for further analysis. The PK parameters included initial concentration (C 0) via extrapolation, clearance (CL), volume of distribution (V ss), and AUC0-t in plasma were determined using non-compartmental analysis. Tissue partitioning values were determined with ratio of AUC0-t,kidney/AUC0-t,plasma for kidney (K p,kidney) and ratio of AUC0-t,lung/AUC0-t,plasma for lung (K p,lung). The mean recovery (%) of SMT-738 unchanged in urine was determined by amount in urine compared to the intravenously administered dose. The study was conducted by Evotec Ltd (UK).

[3] = tested on: KPM (K. pneumoniae NCTC 13438); experiment: Frequency of resistance determination, K. pneumoniae; type: cell-based, Klebsiella pneumoniae; conditions: for LoD Range: experiments with no colonies observed; for FoR Range: experiments with colonies observed
Description: (§2) The FoR of bacterial strains to test compounds was determined by plating aliquots of overnight cultures onto MH-agar plates containing dilutions of the test compound at various multiples of reference MIC as previously determined. Total viable counts of the overnight cultures were determined by spotting 10–20 µL of decimal dilutions in 1× phosphate-buffered saline (PBS) onto non-selective agar. Assay plates were incubated for up to 48 h with colonies being enumerated every 24 h. FoR was determined by dividing the number of colonies observed by the total number of viable cells plated. Representative colonies were then picked and streaked onto selective agar to confirm resistance and obtain resistant isolates. Isolates growing on selective agar were then used to initiate overnight cultures, bacteria pelleted by centrifugation, supernatant removed, and pellets stored at −80°C for subsequent DNA extraction and whole-genome sequencing. Genomic DNA was extracted using the DNeasy Blood and Tissue Kit (Qiagen), quantified using the Quant-iT TM PicoGreen TM dsDNA Assay Kit (Thermo Fisher Scientific), and normalized to 0.2 ng/µL in nuclease-free water. Library preparation and barcode addition were with the Nextera XT DNA Library Prep Kit (Illumina). KAPA Pure beads (Roche) were used for DNA purification. Samples were pooled to achieve 100× coverage of each sample and run on an Illumina Nextseq 500/550 Mid Output Kit v2.5 (150 cycles) (Illumina).

Protein binding, rat = type: in vitro ADME
Protein binding, dog = type: in vitro ADME
[4] = tested on: UPEC (E. coli NCTC 13441) LolC and LolE mutants; experiment: MIC fold change of resistant LolC/LolE mutants, UPEC; type: cell-based, Escherichia coli
Description: as §1
as §2, with “Library preparation and barcode addition were with the Nextera XT DNA Library Prep Kit (Illumina). KAPA Pure beads (Roche) were used for DNA purification. Samples were pooled to achieve 100× coverage of each sample and run on an Illumina Nextseq 500/550 Mid Output Kit v2.5 (150 cycles) (Illumina).” left out

Cc1cnccc1-c1[nH]c(N)nc1-c1ccc2c(c1)N(C(=O)C(C)(C)N)CCO2 [SMT-738]
MIC (Edwardsiella tarda): 32 µg/mL (≈ 81.5 µM)
MIC (Morganella morganii): > 64 µg/mL
MIC (Proteus sp.): 8 to 32 µg/mL
pIC50 (HEK293): < 3.70
cytotoxicity IC50 (HEK293): > 78.74 µg/mL
nephrotoxicity [1]: No toxicity was observed
reduction of bacterial burden compared to pre-treatment (E. coli UTI89): 5–6 log10
bacterial burden following 24-h exposure (K. pneumoniae NCTC 13438): below the limit of detection
timepoint at which bactericidal activity was observed (K. pneumoniae NCTC 13438): 4 h
Kp,kidney ([2]; AUC0-t,kidney/AUC0-t,plasma): 44.8
Kp,lung ([2]; AUC0-t,lung/AUC0-t,plasma): 8.1
eliminated unchanged into the urine ([2]; over a 24-h period): approximately 29.5%
CL ([2]; plasma): 59 mL/min/kg
Vss ([2]; plasma): 4.3 L/kg
C0 ([2]; plasma, via extrapolation): 18,386 ng/mL
LoD Range ([3]; 4× MICref, 24 h): < 2.26E-09
FoR Range ([3]; 4× MICref, 48 h): 1.50E-09
LoD Range ([3]; 4× MICref, 48 h): < 2.26E-09
LoD Range ([3]; 8× MICref, 24 h): < 2.26E-09
FoR Range ([3]; 8× MICref, 48 h): 3.75E-10
LoD Range ([3]; 8× MICref, 48 h): < 2.26E-09
Frequency of resistance (FoR) ([3]; single-step selection at 4× and 8× the MIC, after 24 and 48 h): ≤ 10^−9
protein binding (Protein binding, rat): 64.4%
protein binding (Protein binding, dog): 50.6%
MIC fold change increase ([4]; LolC L256R mutant): L256R (16×)
MIC fold change increase ([4]; LolE D264A mutant): D264A (128×)
